Assay results: patent publication US20230416248A1, “COMPOUNDS AND USES THEREOF” (Foghorn Therapeutics Inc., priority 2020, published 2023)
Read-outs that look alike come from different tables or passages of the source.

How the values were obtained:
BRM = target: T1, BRM (Homo sapiens, UniProt P51531); assay: ATPase catalytic activity of BRM, ADP-Glo in vitro biochemical assay; conditions: for IC50: 30 nM BRM, 400 μM ATP; for Ratio* (BRG1 IC50 (μM) divided by BRM IC50 (μM)): selectivity ratio BRG1 IC50 / BRM IC50
T1 construct: made in house; host or cells: High Five insect cells
T1 sequence (P51531 whole entry): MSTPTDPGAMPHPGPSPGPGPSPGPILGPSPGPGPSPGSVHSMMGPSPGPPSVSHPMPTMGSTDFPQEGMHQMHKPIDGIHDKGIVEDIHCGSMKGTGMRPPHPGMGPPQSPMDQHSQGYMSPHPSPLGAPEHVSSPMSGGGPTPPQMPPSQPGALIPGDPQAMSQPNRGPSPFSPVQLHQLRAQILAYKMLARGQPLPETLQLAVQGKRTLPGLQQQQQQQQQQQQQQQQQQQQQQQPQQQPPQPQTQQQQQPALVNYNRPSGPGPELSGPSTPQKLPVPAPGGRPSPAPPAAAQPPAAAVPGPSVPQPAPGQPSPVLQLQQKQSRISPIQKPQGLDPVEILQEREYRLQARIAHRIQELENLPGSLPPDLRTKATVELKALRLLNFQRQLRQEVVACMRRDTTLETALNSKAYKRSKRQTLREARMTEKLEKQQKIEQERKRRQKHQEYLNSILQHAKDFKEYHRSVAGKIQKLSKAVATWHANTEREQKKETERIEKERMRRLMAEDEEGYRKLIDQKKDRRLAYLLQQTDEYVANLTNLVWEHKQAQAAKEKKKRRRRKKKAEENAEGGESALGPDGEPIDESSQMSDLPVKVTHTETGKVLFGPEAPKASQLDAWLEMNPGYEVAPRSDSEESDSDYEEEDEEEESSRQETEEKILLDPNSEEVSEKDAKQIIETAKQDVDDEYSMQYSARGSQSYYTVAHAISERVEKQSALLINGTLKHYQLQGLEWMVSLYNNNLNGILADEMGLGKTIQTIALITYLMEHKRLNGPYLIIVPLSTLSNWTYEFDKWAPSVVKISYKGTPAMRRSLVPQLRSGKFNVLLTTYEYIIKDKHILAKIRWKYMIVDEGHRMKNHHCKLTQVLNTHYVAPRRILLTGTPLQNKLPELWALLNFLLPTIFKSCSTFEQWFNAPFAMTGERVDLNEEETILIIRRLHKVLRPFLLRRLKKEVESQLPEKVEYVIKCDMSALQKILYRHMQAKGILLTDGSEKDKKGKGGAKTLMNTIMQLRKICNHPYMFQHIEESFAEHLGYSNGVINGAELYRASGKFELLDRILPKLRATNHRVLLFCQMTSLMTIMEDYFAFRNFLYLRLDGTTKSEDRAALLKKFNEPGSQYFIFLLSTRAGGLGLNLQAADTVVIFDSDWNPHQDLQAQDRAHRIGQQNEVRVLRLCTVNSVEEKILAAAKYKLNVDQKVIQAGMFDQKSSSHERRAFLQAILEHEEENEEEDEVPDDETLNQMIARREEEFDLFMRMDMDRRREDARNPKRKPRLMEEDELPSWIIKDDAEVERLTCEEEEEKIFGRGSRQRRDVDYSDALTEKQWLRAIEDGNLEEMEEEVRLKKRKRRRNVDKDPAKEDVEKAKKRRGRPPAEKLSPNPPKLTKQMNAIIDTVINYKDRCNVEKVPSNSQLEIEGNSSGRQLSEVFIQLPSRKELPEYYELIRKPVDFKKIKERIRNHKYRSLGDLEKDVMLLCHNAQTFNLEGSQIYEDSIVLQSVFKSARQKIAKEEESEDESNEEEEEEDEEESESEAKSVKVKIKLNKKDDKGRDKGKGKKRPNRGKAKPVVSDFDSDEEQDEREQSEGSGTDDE
Procedure, shortened: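 Recombinant BRM (30 nM) hydrolysed 400 μM ATP with 20 nM salmon sperm DNA in pH 8 Tris buffer containing 20 mM MgCl2, 50 mM NaCl, 0.1% Tween-20 and 1 mM DTT, 1 h at room temperature. ADP formed was quantified by ADP-Glo luminescence.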

BRG-1 = target: T2, BRG-1 (Homo sapiens, UniProt P51532); assay: ATPase catalytic activity of BRG-1, ADP-Glo in vitro biochemical assay; conditions: 30 nM BRG-1, 400 μM ATP, read-out: BRG1 IC50
T2 construct: made in house; host or cells: High Five insect cells
T2 sequence (P51532 whole entry): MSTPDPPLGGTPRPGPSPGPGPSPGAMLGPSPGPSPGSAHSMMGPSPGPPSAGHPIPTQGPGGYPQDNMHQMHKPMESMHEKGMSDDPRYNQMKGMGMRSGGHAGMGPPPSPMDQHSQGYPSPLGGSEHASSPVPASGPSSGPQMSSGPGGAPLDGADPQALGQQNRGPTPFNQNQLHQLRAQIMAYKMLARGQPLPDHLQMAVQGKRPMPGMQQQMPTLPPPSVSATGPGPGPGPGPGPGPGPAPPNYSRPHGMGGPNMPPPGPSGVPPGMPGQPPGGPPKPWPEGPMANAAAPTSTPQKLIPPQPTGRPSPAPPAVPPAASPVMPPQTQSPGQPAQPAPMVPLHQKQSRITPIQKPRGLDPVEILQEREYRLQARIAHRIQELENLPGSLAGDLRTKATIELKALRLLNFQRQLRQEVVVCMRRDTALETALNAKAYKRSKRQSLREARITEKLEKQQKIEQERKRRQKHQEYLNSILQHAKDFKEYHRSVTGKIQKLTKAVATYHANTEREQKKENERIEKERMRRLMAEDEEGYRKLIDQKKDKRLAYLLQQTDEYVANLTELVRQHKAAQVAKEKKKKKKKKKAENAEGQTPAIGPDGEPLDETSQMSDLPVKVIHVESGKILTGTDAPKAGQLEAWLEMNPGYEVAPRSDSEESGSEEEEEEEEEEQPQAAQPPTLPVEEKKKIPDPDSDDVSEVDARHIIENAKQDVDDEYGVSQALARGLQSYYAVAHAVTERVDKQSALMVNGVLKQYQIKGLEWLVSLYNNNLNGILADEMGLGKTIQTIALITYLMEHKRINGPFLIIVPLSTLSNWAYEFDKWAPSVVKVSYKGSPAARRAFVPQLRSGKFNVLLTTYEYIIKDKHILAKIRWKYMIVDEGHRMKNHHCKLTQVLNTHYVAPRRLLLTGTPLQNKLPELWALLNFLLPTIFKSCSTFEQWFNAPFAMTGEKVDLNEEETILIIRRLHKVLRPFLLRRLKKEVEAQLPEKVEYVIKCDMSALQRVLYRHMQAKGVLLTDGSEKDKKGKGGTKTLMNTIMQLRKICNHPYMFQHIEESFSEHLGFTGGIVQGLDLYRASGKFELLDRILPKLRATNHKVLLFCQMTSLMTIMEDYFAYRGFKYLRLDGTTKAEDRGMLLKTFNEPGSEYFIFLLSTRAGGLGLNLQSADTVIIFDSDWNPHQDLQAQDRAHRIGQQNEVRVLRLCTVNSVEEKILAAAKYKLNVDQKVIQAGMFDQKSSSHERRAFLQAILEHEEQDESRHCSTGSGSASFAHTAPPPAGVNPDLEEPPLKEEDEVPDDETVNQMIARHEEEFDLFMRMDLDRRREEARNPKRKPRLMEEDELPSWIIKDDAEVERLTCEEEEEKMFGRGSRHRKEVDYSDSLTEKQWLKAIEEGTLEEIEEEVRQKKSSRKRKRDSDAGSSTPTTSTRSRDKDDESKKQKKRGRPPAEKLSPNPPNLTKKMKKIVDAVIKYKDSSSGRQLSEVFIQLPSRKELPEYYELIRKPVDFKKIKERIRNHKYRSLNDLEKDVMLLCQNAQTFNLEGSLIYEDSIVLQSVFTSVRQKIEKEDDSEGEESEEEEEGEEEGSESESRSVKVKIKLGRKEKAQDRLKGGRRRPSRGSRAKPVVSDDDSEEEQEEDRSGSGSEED
Procedure, shortened: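 BRG-1 ATPase activity was measured in vitro by ADP-Glo. After the reaction, ADP-Glo Reagent depleted unconsumed ATP (40 min, room temperature), then Kinase Detection Reagent converted product ADP to ATP (60 min, room temperature), and luciferase luminescence was read.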

[1] = ATPase catalytic activity, ADP-Glo

| SMILES | IC50 (BRM; ADP-Glo ATPase assay) [nM] | Ratio* (BRG1 IC50 (μM) divided by BRM IC50 (μM)) (BRM) | IC50 (BRG-1; ADP-Glo ATPase assay) [nM] | IC50 (BRM; [1]) [nM] | Ratio* (BRM; ratio of BRG1 IC50 to BRM IC50) | IC50 (BRG-1; [1]) [nM] | Ratio* (BRM; ratio BRG1 IC50 / BRM IC50) |
| --- | --- | --- | --- | --- | --- | --- | --- |
| C[C@@H]1CN(c2cccc(-c3ccc4cnc(CNC(=O)c5ccc6c(c5)S(=O)(=O)[C@@H](C)CCO6)cc4n3)n2)C[C@H](C)O1 [Compound 15] | 7.5 | 6.80 | 51.1 | – | – | – | – |
| O=C(NCc1cc2nc(N3CCCc4ncc(C5CC5)nc43)ccc2cn1)c1ccc2c(c1)S(=O)(=O)CCOC2 [Compound 785] | 85.8 | – | 1330 | – | – | – | 15.49 |
| C[C@@H]1CN(c2cccc(-c3ccc4cnc(CNC(=O)c5ccc(COC6CC6)c(S(C)(=O)=O)c5)cc4n3)n2)C[C@H](C)O1 [Compound 578] | – | – | – | 27.7 | 19.00 | 525 | – |
| COCCc1cnc2c(c1)CCCN2c1ccc2cnc(CNC(=O)c3ccc4c(c3)S(=O)(=O)CCOC4)cc2n1 [Compound 510] | – | – | – | 13.9 | 10.20 | 142 | – |
| COc1cnc2c(c1C)CCCN2c1ccc2cnc(CNC(=O)c3ccc4c(c3)S(=O)(=O)CCOC4)cc2n1 [Compound 637] | – | – | – | 20 | 10.34 | 207 | – |
| O=C(NCc1cc2nc(N3CCCc4ccc(C(F)F)cc43)ccc2cn1)c1ccc2c(c1)S(=O)(=O)CCOC2 [Compound 532] | – | – | – | 6.4 | 18.84 | 120 | – |
| COc1cccc2c1CCCN2c1ccc2cnc(CNC(=O)c3cnc4c(c3)S(=O)(=O)[C@@H](C)COC4)cc2n1 [Compound 733] | 9.4 | – | 84.2 | – | – | – | 8.96 |
| C[C@@H]1CN(c2cccc(-c3ccc4cnc(CNC(=O)c5cc(F)c(C(F)F)c(S(C)(=O)=O)c5)cc4n3)n2)C[C@H](C)O1 [Compound 147] | 15.6 | 25.22 | 394 | – | – | – | – |
| O=C(NCc1cc2nc(N3CCCc4ccc(C(F)(F)F)nc43)ccc2cn1)c1ccc2c(c1)S(=O)(=O)CCOC2 [Compound 570] | – | – | – | 66.9 | 8.32 | 557 | – |
| O=C(NCc1cc2cc(-c3cncc(C4CC4)n3)ccc2cn1)c1cnc2c(c1)S(=O)(=O)CCOC2 [Compound 248] | 70.2 | 8.41 | 590 | – | – | – | – |
| Cc1cnc2c(c1)CCN2c1ccc2cnc(CNC(=O)c3ccc4c(c3)S(=O)(=O)CCOC4)cc2n1 [Compound 656] | – | – | – | 12.2 | 10.50 | 128 | – |
| C[C@@H]1CN(c2cccc(-c3ccc4cnc(CNC(=O)c5cnc6c(c5)S(=O)(=O)CCCCC6)cc4n3)n2)C[C@H](C)O1 [Compound 451] | – | – | – | 5 | 1.60 | 8 | – |
| O=C(NCc1cc2nc(N3CCOc4cc(N5CCC(F)(F)C5)cnc43)ccc2cn1)c1ccc2c(c1)S(=O)(=O)CCOC2 [Compound 758] | 35.6 | – | 507 | – | – | – | 14.23 |
| O=C(NCc1cc2cc(N3CCOc4ccc(C5CC5)cc43)ccc2cn1)c1ccc2c(c1)S(=O)(=O)CCOC2 [Compound 787] | 13.5 | – | 194 | – | – | – | 14.38 |

Now from value to molecule:

| IC50 (BRM; ADP-Glo ATPase assay) [nM] | Ratio* (BRG1 IC50 (μM) divided by BRM IC50 (μM)) (BRM) | IC50 (BRG-1; ADP-Glo ATPase assay) [nM] | IC50 (BRM; [1]) [nM] | Ratio* (BRM; ratio of BRG1 IC50 to BRM IC50) | IC50 (BRG-1; [1]) [nM] | Ratio* (BRM; ratio BRG1 IC50 / BRM IC50) | SMILES |
| --- | --- | --- | --- | --- | --- | --- | --- |
| – | – | – | 45.7 | 10.51 | 480 | – | CN(CC1(F)COC1)c1cccc(-c2ccc3cnc(CNC(=O)c4ccc5c(c4)S(=O)(=O)CCOC5)cc3n2)n1 [Compound 314] |
| – | – | – | 213 | 10.41 | 2220 | – | CO[C@H]1COc2c(-c3ccc4cnc(CNC(=O)c5ccc6c(c5)S(=O)(=O)CCOC6)cc4n3)cccc2N(C)C1 [Compound 613] |
| – | – | – | 208 | 16.91 | 3520 | – | C[C@@H]1CN(c2cccc(-c3ccc4cnc(CNC(=O)c5ccc6c(c5)S(=O)(=O)[C@@H](C)C6)cc4n3)n2)C[C@H](C)O1 [Compound 500] |
| – | – | – | 6.6 | 16.08 | 107 | – | COCCn1ccc2c(-c3ccc4cnc(CNC(=O)c5ccc6c(c5)S(=O)(=O)CCOC6)cc4n3)ccnc21 [Compound 336] |
| – | – | – | 4.4 | 4.38 | 19.1 | – | COc1cccc2c1CCCN2c1ccc2cnc(CNC(=O)c3ccc4c(c3)S(=O)(=O)CCOC4)cc2n1 [Compound 492] |
| 294 | 6.26 | 1840 | – | – | – | – | CC1CS(=O)(=O)c2cc(C(=O)NCc3cc4nc(-c5cccc(N6C[C@@H](C)O[C@@H](C)C6)n5)ccc4cn3)ccc2CO1 (stereo partly drawn) [Compound 48] |
| – | – | – | 21.4 | 12.29 | 263 | – | O=C(NCc1cc2nc(N3CCOc4cc(C(F)F)ccc43)ccc2cn1)c1ccc2c(c1)S(=O)(=O)CCOC2 [Compound 520] |
| 17.5 | 19.39 | 340 | – | – | – | – | CO[C@@H](C)CN(C)c1cccc(-c2ccc3cnc(CNC(=O)c4ccc5c(c4)S(=O)(=O)CCOC5)cc3n2)n1 [Compound 64] |
